Data reported in the supplement of paper PMC10307832.

What was measured:
Experiment in all cases: relative viability (nuclei count vs DMSO), 5 days (fraction); higher = more cells survive
[1] = compound: COc1cc2/c(=N/c3ccc(Br)cc3F)nc[nH]c2cc1OCC1CCN(C)CC1 [Vandetanib] + Nc1nc2[nH]cc(CCc3ccc(C(=O)N[C@@H](CCC(=O)O)C(=O)O)cc3)c2c(=O)[nH]1 [Pemetrexed] (partner 0.2 µM)
Method in brief: (§1)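 The day after seeding in 1536-well plates, lung cancer cell lines were treated by pin tool with a single drug, or with a fixed anchor-drug dose together with five library-drug doses (not always all listed) in √10 steps. After 5 days, a combined fix-and-stain solution (final 0.05% Triton X-100, 1% formaldehyde, 1 ug/ml Hoechst) was added. Nuclei counted on 4× images gave relative viability as treated counts over vehicle counts, reported as the median of duplicate plates.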

[2] = compound: C#Cc1cccc(Nc2ncnc3cc(OC)c(OCCCCCCC(=O)NO)cc23)c1 [CUDC-101] + Cc1nc(Nc2ncc(C(=O)Nc3c(C)cccc3Cl)s2)cc(N2CCN(CCO)CC2)n1 [Dasatinib] (partner 0.075 µM)
Method in brief: as §1

[3] = compound: C1=CC=C2C(=C1)N=C(S2)C(C#N)C3=NC(=NC=C3)NCCC4=CN=CC=C4 + NC(=O)Nc1cc(-c2cccc(F)c2)sc1C(=O)N[C@H]1CCCNC1 [AZD7762] (partner 0.2 µM)
Method in brief: as §1

[4] = compound: C1=CC=C2C(=C1)N=C(S2)C(C#N)C3=NC(=NC=C3)NCCC4=CN=CC=C4 + CC1(C)CCC(c2ccc(Cl)cc2)=C(CN2CCN(c3ccc(C(=O)NS(=O)(=O)c4ccc(N[C@H](CCN5CCOCC5)CSc5ccccc5)c(S(=O)(=O)C(F)(F)F)c4)cc3)CC2)C1 [Navitoclax] (partner 0.5 µM)
Method in brief: as §1

Cell Line	relative viability ([1]; first compound 0.02 µM)	relative viability ([1]; first compound 0.06325 µM)	relative viability ([1]; first compound 0.2 µM)	relative viability ([1]; first compound 0.6325 µM)	relative viability ([1]; first compound 2 µM)	relative viability ([2]; first compound 0.01 µM)	relative viability ([2]; first compound 0.03162 µM)	relative viability ([2]; first compound 0.1 µM)	relative viability ([2]; first compound 0.3162 µM)	relative viability ([2]; first compound 1 µM)	relative viability ([3]; first compound 0.005 µM)	relative viability ([3]; first compound 0.01581 µM)	relative viability ([3]; first compound 0.05 µM)	relative viability ([3]; first compound 0.1581 µM)	relative viability ([3]; first compound 0.5 µM)	relative viability ([4]; first compound 0.005 µM)	relative viability ([4]; first compound 0.01581 µM)	relative viability ([4]; first compound 0.05 µM)	relative viability ([4]; first compound 0.1581 µM)	relative viability ([4]; first compound 0.5 µM)
EPLC-272H	0.447	0.299	0.399	0.341	0.287	0.448	0.364	0.316	0.357	0.183	0.307	0.243	0.254	0.25	0.21	0.94	1.05	1.14	1.04	1.08
A-427	0.907	1	1.06	0.986	0.927	0.745	0.659	0.649	0.608	0.389	0.816	0.727	0.682	0.764	0.645	0.964	0.95	0.956	0.896	1.05
NCI-H1755	0.396	0.53	0.464	0.482	0.451	0.4	0.376	0.462	0.519	0.377	0.458	0.539	0.506	0.542	0.43	0.968	1.1	1	1.15	0.948
NCI-H838	0.242	0.243	0.251	0.232	0.237	0.338	–	0.308	0.335	0.358	0.889	0.891	0.907	0.92	0.836	1.02	1.22	1.16	1.1	1.22
NCI-H1793	1.02	0.779	0.772	0.711	0.744	0.393	0.371	0.342	0.415	0.371	–	0.391	0.58	0.513	0.306	0.31	0.398	0.519	0.456	0.509
EKVX	0.385	0.373	0.459	0.349	0.363	0.374	0.499	0.571	0.439	0.362	0.704	0.777	0.682	0.85	0.604	0.947	0.986	1.09	0.949	1.11
HCC-827	0.245	0.241	0.263	0.173	0.171	0.317	0.154	0.116	0.135	0.13	0.201	0.176	0.225	0.235	0.19	1.07	1.07	1.02	1.05	1.04
NCI-H2170	0.278	0.249	0.265	0.262	0.268	0.633	0.512	0.583	0.475	0.363	0.861	0.995	0.861	0.968	0.744	–	0.587	0.59	0.626	0.566
NCI-H1395	0.917	0.902	0.746	0.842	0.612	0.418	0.385	0.438	0.434	0.363	0.392	–	0.379	0.428	0.389	1.23	–	1.03	1.08	1.22
NCI-H1437	0.308	0.306	0.307	0.319	0.304	0.384	0.364	0.457	0.432	0.402	1.12	1.12	1.11	1.13	0.968	1.02	1.15	1.14	1.17	1.08
NCI-H2087	0.661	0.64	0.619	0.641	0.623	0.795	0.946	0.841	0.971	0.718	1.42	1.39	1.41	1.45	1.06	0.986	1.01	1.16	1	0.927
PC-14	0.133	0.115	0.123	0.179	0.165	0.292	0.232	0.0804	0.0597	0.0289	0.334	0.238	0.396	0.514	0.302	0.808	1.13	1.09	1.09	0.851
H3255	0.566	0.482	0.49	0.444	0.357	0.429	0.373	–	0.298	0.171	0.993	0.876	0.912	0.916	0.829	0.591	0.424	0.567	0.689	0.624
NCI-H460	0.0623	0.0604	0.0622	0.0619	0.0589	0.555	0.506	0.524	0.602	0.44	0.508	0.641	0.672	0.69	0.43	–	1.38	1.13	1.23	0.656
HOP-62	0.325	0.358	0.438	0.299	0.291	0.678	0.656	0.692	0.631	0.438	0.271	0.824	0.705	0.542	0.534	0.854	1.25	1.05	1.16	0.871
HCC-78	0.88	0.889	0.893	0.873	0.901	0.401	0.293	0.373	0.28	0.213	0.619	0.593	0.739	0.697	0.576	0.454	0.774	0.623	0.912	0.818
